Reference: patent US20110182871A1, “NOVEL MICROORGANISM AND PLANT DISEASE CONTROL AGENT USING THE MICROORAGNISM” (UNIVERSITY OF YAMANASHI, priority 2008, published 2011)

What was measured:
[1] = test system: Bacillus subtilis strain KS1; test: Drug resistance test: growth of strain KS1 on YBS medium containing a chemical pesticide; assay type: cell-based; settings: 37° C., 2 days
Protocol: (§1) In this example, a test for resistance of Bacillus subtilis strain KS1 to chemical pesticides was performed. First, the YBS medium (one containing yeast extract and meat extract in agar) containing the chemical pesticide of interest was prepared in a petri dish. The concentration (ppm) of the chemical pesticide at this time was the same as a general application concentration. Next, Bacillus subtilis strain KS1 was smeared on the surface of the above-mentioned medium containing the chemical pesticide and incubated at 37° C. for 2 days. As a control area, a test for resistance of Bacillus subtilis isolated from a Botokiller water dispersible powder to chemical pesticides was performed in parallel. In this case, the suspension of the Botokiller water dispersible powder was spread on the YBS medium and the bacteria that appeared after overnight incubation at 37° C. were considered as the bacteria constituting a Botokiller water dispersible powder. In the resistance test, the bacteria constituting a Botokiller water dispersible powder were smeared on the surface of the medium containing a chemical pesticide and incubated at 37° C. for 2 days, as is the case with the above-mentioned Bacillus subtilis strain KS1. […]

[2] = test system: B. subtilis used in a Botokiller water dispersible powder; test: Drug resistance test: growth of the bacteria constituting a Botokiller water dispersible powder on YBS medium containing a chemical pesticide; assay type: cell-based, Bacillus subtilis; settings: 37° C., 2 days
Protocol: as §1

Q: For `S=C([S-])NCCNC(=S)[S-].[Mn+2]` [Maneb], which “Resistance of Bacillus subtilis strain KS1 to the chemical pesticide (in words)” value [1] is on record?
A: The value was “showed resistance”.

Q: What about the “Resistance of the bacteria constituting a Botokiller water dispersible powder to the chemical pesticide (in words)” value [2] of the same molecule?
A: The value was “showed no resistance”.
